Laboratory results reported in patent US20100062970A1, “SYNTHESIS OF PROPYL PHENOXY ETHERS AND USE AS DELIVERY AGENTS” (Emisphere Technologies Inc., priority 2006, published 2010).

Tested on: whole blood glucose
Assay: In vivo delivery of insulin to fasted rats via oral gavage (whole blood glucose)
Parameters: species or system rat
Conditions: male Sprague-Dawley rats, delivery agent 200 mg/kg with insulin (human recombinant) 0.5 mg/kg
Procedure: Insulin (human recombinant) was obtained from ICN Biomedicals (Aurora, Ohio) as a bulk powder. To prepare stock solutions, insulin was dissolved in deionized water (pH˜6.5) to obtain a concentration of 15 mg/ml. Stock solutions were kept frozen at −20° C. in 1.0-ml aliquots until used. For dosing solutions, delivery agent was dissolved in deionized water to obtain a final concentration of 200 mg/ml. The free acid form of delivery agent was converted to the sodium salt by adding one equivalent of sodium hydroxide. Solutions were vortexed, sonicated, and heated, and if necessary, additional sodium hydroxide was added in μl quantities to achieve uniform solubility. Solutions were adjusted to a pH of 3.5-8.5 by the addition of either hydrochloric acid or sodium hydroxide. Insulin stock (typically 66.7 μls) was then added to the delivery agent solution to obtain a final concentration of 0.5 mg/ml. After solubilization and drug addition, solutions were brought to final volume by the addition of deionized water.
Insulin was administered to male, Sprague-Dawley rats either alone or in combination with an Emisphere delivery agent by oral gavage (PO). Rats were fasted for 18-24 hours prior to dosing. For dosing, a Rusch 8 French catheter was cut to 11 cm in length and adapted to fit a 1-ml syringe. The syringe was filled with dosing solution and the catheter was wiped dry of excess solution. The catheter was inserted into the rat mouth and fed down the esophagus (10.0 cm). The dosing solution was delivered by pressing the syringe plunger while holding the rat in an upright position.
During blood sampling, rats were exposed briefly (˜10 sec) to carbon dioxide until prostrate, immediately prior to each sampling time point. For blood sampling, a 77-mm capillary tube was inserted into the retroorbital sinus. Typically, blood samples were collected prior to dosing (time 0) and at 15, 30, 45, and 60 minutes after dosing. Samples were collected into Capiject® tubes (Terumo Corporation, Tokyo, Japan) containing a clot activator (red top, serum separator tubes). Samples were allowed to clot for ˜20 min at 4° C. After clotting, samples were centrifuged at 10,000 rpm for 4 minutes at 6° C. in order to separate the serum. Serum was collected into eppendorf tubes and frozen at −20° C. until assayed.
In order to determine the pharmacodynamic response, a hand-held glucometer (OneTouch Ultra, LifeScan® (Johnson & Johnson, New Brunswick, N.J.)) was used to measure whole blood glucose after administration of insulin or insulin and delivery agent. Samples were collected either from the retroorbital sinus (see Sample collection and handling: Insulin) or from the tail artery (i.e. tail clip). For tail clipping, the tip of the tail was severed approximately 5 mm from the tip using a scalpel blade. After discarding the first drop of blood, a small sample (˜5-10 μl) was touched to the glucometer test strip (OneTouch Ultra, LifeScan) and a blood glucose reading was generated by the meter. For each subsequent sampling time point, the clot formed at the tip of the tail was broken up and a fresh sample was collected. Typically, samples were collected prior to dosing (time 0) and at 15, 30, 45, and 60 minutes after dosing.
Concentrations of insulin were quantified in rat serum using a sandwich-type ELISA (kit; Diagnostic Systems Laboratories, Inc., Webster, Tex.). The calibrated assay range was 12.5-250.0 μlU/mL. Serum from rats was obtained internally from stock animals and used to prepare calibration standards and low and high quality control samples (LQC, HQC). The low and high quality control samples for the second curve were prepared at 30 and 150 μlU/mL, respectively. Calibration standards were prepared fresh daily and quality control samples were stored at a nominal temperature of −20° C. Concentration values (test samples) were read from the standard curve, averaged for each time point (n=5), and plotted as mean serum concentration of insulin (±SEM) versus time. […]

Compound | % Glucose Cmin (Rat) [%]
Cc1ccccc1OCCC(=O)O [Compound 8, 3-o-Tolyloxy-propionic acid] | −24.2
Cc1cccc(OCCC(=O)O)c1 [Compound 6, 3-m-Tolyloxy-propionic acid] | −29.3
Cc1cccc(OCCC(=O)O)c1C [Compound 5, 3-(2,3-Dimethyl-phenoxy)-propionic acid] | −22.2
Cc1ccc(C)c(OCCC(=O)O)c1 [Compound 4, 3-(2,5-Dimethyl-phenoxy)-propionic acid] | −39.6
O=C(O)CCOc1ccccc1Cl [Compound 1, 3-2-Chloro-phenoxy-propionic acid] | −47.0
Cc1cccc(C)c1OCCC(=O)O [Compound 7, 3-(2,6-Dimethyl-phenoxy)-propionic acid] | −42.1
Cc1ccc(OCCC(=O)O)c(C)c1 [Compound 9, 3-(2,4-Dimethyl-phenoxy)-propionic acid] | −40.3
Cc1ccc(OCCC(=O)O)cc1C [Compound 2, 3-(3,4-Dimethyl-phenoxy)-propionic acid] | −48.2
Cc1cc(C)cc(OCCC(=O)O)c1 [Compound 3, 3-(3,5-Dimethyl-phenoxy)-propionic acid] | −16.6
